These are literature values, as cited in publication PMC9516532, “A genetically encoded BRET-based SARS-CoV-2 M^pro protease activity sensor” (Communications Chemistry, 2022).

The test system of the data set is P-gp. As to conditions: reviewer's comment; ref ACS Infect. Dis. 2021, 7, 3, 586–597.

`CC(C)C[C@H](NC(=O)OCc1ccccc1)C(=O)N[C@@H](C[C@@H]1CCNC1=O)C(O)S(=O)(=O)[O-].[Na+]` (stereo partly shown) [GC376]: the P-gp substrate entry is on record as “known substrate of P-gp”.
